Measurements reported in patent publication US20260265754A1, “CHK1-TARGETING SIRNAS CHEMICALLY MODIFIED WITH GEMCITABINE” (Sirnaomics, Inc., priority 2024, published 2026).
Structures can show the parent of a compound that is named as a salt. d = 2'-deoxy (DNA); m = 2'-O-methyl; f = 2'-fluoro

Tests used:
[1] = test system: MiaPaCa-2 (pancreatic cancer) cells; assay: Cell viability assay (CellTiter-Glo), lipofectamine transfection, MiaPaCa-2; type: cell-based; details: for Activity/efficacy in reducing cell viability: MiaPaCa-2 cells, FIG. 1; for Improvement of dose response over gemcitabine alone: MiaPaca2 cells
Procedure: All cell lines were obtained from ATCC (Rockville, MD). Cells were cultured in standard media supplemented with 10% FBS: Panc 10.05, H1299 and H358 in RPMI-1640 Medium, MiaPaCa-2, HT29 and MDA-MB-231 in DMEM, LS180 in EMEM. All media were obtained from ATCC (Rockville, MD). Cells were seeded in 384-well plates at a density of 0.3×10^3 to 1×10^3 cells/well. On the next day, cells were treated with serially diluted gemcitabine or siRNAs delivered by Lipofectamine RNAiMAX (Life Technologies, Carlsbad, CA). Ninety-six (96) hours after addition of gemcitabine or transfection reagent, the number of viable cells was determined using CellTiter-Glo(R)-2.0 reagent (Promega, Madison, WI) by measuring luminescent signal on a Cytation 5 plate reader (BioTek Inc, Winooski, VT). All values were compared to values generated for cells treated with non-silencing (NS) siRNA or to non-treated control and reported as the percentage cell viability. Values represent the mean±SD (n=4). All values were normalized to values generated for cells treated with a non-silencing siRNA and reported as the percentage cell viability. Calculation ofEC50 values. The EC50 values of the Gemcitabine, or Gemcitabine-modified siRNAs, (half-maximal effective concentration) were derived from a sigmoidal dose-response (variable slope) curve using GraphPad Prism 10.0.2(232) software (GraphPad Software, San Diego, Ca). Combination index (CI) calculation. […] CI=([…])2, where (Dx)1 and (Dx)2 are the doses of drug 1 and drug 2, alone, inhibiting 50%, whereas (D1) is the dose of drug 1 in combination, and (D2) the dose of drug 2 in combination that gives the experimentally observed 50% inhibition. These siRNA constructs were tested for their ability to reduce viability of pancreatic cancer using Miapaca2 cells after lipofectamine transfection of the siRNAs at varying concentrations. All of the constructs could inhibit the viability of these cells by 100% at concentrations below 100 nM. The contribution of the gemcitabine within the constructs was studied by making and evaluating constructs lacking the gemcitabine.

A549 (G12S) cells = assay: Cell viability assay, A549; type: cell-based
Procedure: (§1) Cells were seeded in 384-well plates at a density of 0.3×10^3 to 1×10^3 cells/well. On the next day, cells were treated with serially diluted gemcitabine or siRNAs delivered by Lipofectamine RNAiMAX (Life Technologies, Carlsbad, CA). Ninety-six (96) hours after addition of gemcitabine or transfection reagent, the number of viable cells was determined using CellTiter-Glo(R)-2.0 reagent (Promega, Madison, WI) by measuring luminescent signal on a Cytation 5 plate reader (BioTek Inc, Winooski, VT). All values were compared to values generated for cells treated with non-silencing (NS) siRNA or to non-treated control and reported as the percentage cell viability. Values represent the mean±SD (n=4). All values were normalized to values generated for cells treated with a non-silencing siRNA and reported as the percentage cell viability. Calculation ofEC50 values. The EC50 values of the Gemcitabine, or Gemcitabine-modified siRNAs, (half-maximal effective concentration) were derived from a sigmoidal dose-response (variable slope) curve using GraphPad Prism 10.0.2(232) software (GraphPad Software, San Diego, Ca).

H2030 (G12C) cells = assay: Cell viability assay, H2030; type: cell-based
Procedure: as §1

MDA-MB-231 (TNBC) cells = assay: Cell viability assay (CellTiter-Glo), lipofectamine transfection, MDA-MB-231; type: cell-based; details: MDA-MB-231 cells, FIG. 2K
Procedure: as §1, with “All cell lines were obtained from ATCC (Rockville, MD). Cells were cultured in standard media supplemented with 10% FBS: Panc 10.05, H1299 and H358 in RPMI-1640 Medium, MiaPaCa-2, HT29 and MDA-MB-231 in DMEM, LS180 in EMEM. All media were obtained from ATCC (Rockville, MD). Cells” for “Cells”

H1299 (KRAS wt) cells = assay: Cell viability assay (CellTiter-Glo), lipofectamine transfection, H1299; type: cell-based
Procedure: (§2) All cell lines were obtained from ATCC (Rockville, MD). Cells were cultured in standard media supplemented with 10% FBS: Panc 10.05, H1299 and H358 in RPMI-1640 Medium, MiaPaCa-2, HT29 and MDA-MB-231 in DMEM, LS180 in EMEM. All media were obtained from ATCC (Rockville, MD).
as §1, with “viability.” for “viability. Calculation ofEC50 values. The EC50 values of the Gemcitabine, or Gemcitabine-modified siRNAs, (half-maximal effective concentration) were derived from a sigmoidal dose-response (variable slope) curve using GraphPad Prism 10.0.2(232) software (GraphPad Software, San Diego, Ca).”
(§3) Calculation ofEC50 values. The EC50 values of the Gemcitabine, or Gemcitabine-modified siRNAs, (half-maximal effective concentration) were derived from a sigmoidal dose-response (variable slope) curve using GraphPad Prism 10.0.2(232) software (GraphPad Software, San Diego, Ca). […]

[2] = test system: OVCAR-3 (ovarian cancer) cells; assay: Cell viability assay, lipofectamine transfection, OVCAR-3; type: cell-based; details: OVCAR-3 cells, FIG. 2L
Procedure: as §1

H358 cells (KRAS G12C) = assay: Cell viability assay (CellTiter-Glo), lipofectamine transfection, H358; type: cell-based
Procedure: as §2
as §1, with “viability.” for “viability. Calculation ofEC50 values. The EC50 values of the Gemcitabine, or Gemcitabine-modified siRNAs, (half-maximal effective concentration) were derived from a sigmoidal dose-response (variable slope) curve using GraphPad Prism 10.0.2(232) software (GraphPad Software, San Diego, Ca).”
as §3

[3] = PNP particle size and zeta potential by dynamic light scattering; type: physicochemical; design: Nanoparticle size: unit not given here; details: for Nanoparticle size: siRNA formulated with HKP(+H), dynamic light scattering
Procedure: To test the efficacy of the products in vivo siRNAs (non-silencing siRNA (Control; NS), and PGN6) were formulated with a branched histidine lysine polymer (HKP (+H)) to form peptide nanoparticle (PNP) formulations were prepared using a microfluidic mixing system with a staggered herringbone patterned mixer (Precision NanoSystems, Vancouver, BC, Canada). HKP(+H) stock was prepared in water and diluted to appropriate concentrations. PolyGem siRNA or non-silencing (NS) siRNA stocks were prepared in water. The HKP(+H) and siRNA were mixed at a volume ratio of 1:1 at 8-10 mL/min total flow rate. Formulations were incubated for 30 min at room temperature. Particle size and zeta potential were then determined by dynamic light scattering with a Zetasizer Ultra (Malvern Panalytical, MA). A gel retardation assay was used to evaluate the efficiency of complex formation. Briefly, pre-formed PNPs were mixed with RNA loading dye and applied to 2% agarose gel. The gel was run in 0.5×TBE for 15 min. Electrophoretic mobility of the siRNA-nanoparticles was analyzed on a gel imaging system.

## PGN7 (no Gem): Modified Chk1 siRNA as PGN7 lacking gemcitabine; SEQ ID Nos. 9-10 (chain 1 AAGAAAGAGAUCUGUAUCAAU; chain 2 AUUGAUACAGAUCUCUUUCUUTT; chain 1: sugars from the 5' end mmmmmmfmfffffmfmffmmf, backbone not given here; chain 2: sugars from the 5' end mfmmmfmmmmmfmfmfmfmfmdd, backbone not given here; further chemistry not fully specified)
[1]
  Activity/efficacy in reducing cell viability: did not show good efficacy at higher concentrations

## PGN7: Chk1-targeting siRNA, 2′OMe/2′-fluoro modified, four gemcitabine nucleosides; SEQ ID Nos. 5-6 (chain 1 AAGAAAGAGAUCUGUAUCAAU; chain 2 AUUGAUACAGAUCUCUUUCUUCCUU; 2'-OMe/2'-F modified, four gemcitabine nucleosides, full pattern not given here)
A549 (G12S) cells
  IC50: ~6 nM
H2030 (G12C) cells
  IC50: 3 nM
MDA-MB-231 (TNBC) cells
  Activity/efficacy in reducing cell viability: greater potency
[1]
  Improvement of dose response over gemcitabine alone: 100 fold
H1299 (KRAS wt) cells
  IC50: ~6 nM
[2]
  Activity/efficacy in reducing cell viability: greater potency
H358 cells (KRAS G12C)
  IC50: ~1 nM

## PGN6: Chk1-targeting siRNA, 2′OMe/2′-fluoro modified, four gemcitabine nucleosides; SEQ ID Nos. 3-4 (chain 1 AAGAAAGAGAUUCGUAUCAAU; chain 2 AUUGAUACAGAUCUCUUUCUUCCUU; 2'-OMe/2'-F modified, four gemcitabine nucleosides, full pattern not given here)
[3]; siRNA formulated in HKP(+H)
  Zeta potential: 35.8 mV
[3]
  Nanoparticle size: 86.7
MDA-MB-231 (TNBC) cells
  Activity/efficacy in reducing cell viability: greater potency
[1]
  Improvement of dose response over gemcitabine alone: 100 fold
[2]
  Activity/efficacy in reducing cell viability: greater potency

## Nc1ccn([C@@H]2O[C@H](CO)[C@@H](O)C2(F)F)c(=O)n1 [gemcitabine, 2′-deoxy-2′,2′-difluorocytidine monohydrochloride]
[1]; Homo sapiens, MIA PaCa-2, MiaPaca-2 cells, 96 h, free gemcitabine or siRNA by lipofectamine
  IC50: > 10 nM

## PGN6 (no Gem): Modified Chk1 siRNA as PGN6 lacking gemcitabine; SEQ ID Nos. 7-8 (chain 1 AAGAAAGAGAUCUGUAUCAAU; chain 2 AUUGAUACAGAUCUCUUUCUUTT; chain 1: sugars from the 5' end mmmmmmfmffffmmmmmfmmm, backbone not given here; chain 2: sugars from the 5' end mfmmmfmmmmmmmfmffffffdd, backbone not given here; further chemistry not fully specified)
[1]
  Activity/efficacy in reducing cell viability: did not show good efficacy at higher concentrations

## PGN7S (sense AAGAAAGAGAUCUGUAUCAAU; antisense AUUGAUACAGAUCUCUUUCUUCCDUDU; gemcitabine nucleotides; phosphorothioates; 5' LS on antisense; modified_base 1 OTHER; 2'-O-methyl adenosine; modified_base 9 OTHER; 2'-fluoro-guanosine; modified_base 15 OTHER; 2'-fluorouracil; modified_base 21 OTHER; modified_base 16 OTHER; modified_base 6 OTHER; modified_base 17 OTHER; modified_base 19 OTHER; modified_base 5 OTHER; m; modified_base 3 um; modified_base 4 gm; modified_base 7 OTHER; 2)
[1]
  Activity/efficacy in reducing cell viability: weaker activity than either PGN6 or PGN7

## Non-Silencing: Non-silencing siRNA control; SEQ ID Nos. 1-2 (chain 1 CGAGCAGGGUAUCGACGAUUACAAA; chain 2 UUUGUAAUCGUCGAUACCCUGCUCG; RNA, backbone not given here; listed as Homo sapiens) [reference compound]
[3]
  Nanoparticle size: 82.6
